Test results taken from patent publication US8252939B2, “Sulfoximinamide compounds for combating animal pests” (BASF SE, priority 2008, dated 2012).

Assays:
Type in all cases: in vivo
[1] = test system: Myzus persicae; test: Green peach aphid (Myzus persicae) II, pepper plant leaf dip; settings: foliar, 120 h, after 5 days, read-out: mortality in comparison with untreated controls
Text: The active compounds were formulated in 50:50 acetone:water (vol:vol) and 100 ppm Kinetica™ surfactant.
Pepper plants in the 2nd leaf-pair stage (variety ‘California Wonder’) were infested with approximately 40 laboratory-reared aphids by placing infested leaf sections on top of the test plants. The leaf sections were removed after 24 hr. The leaves of the intact plants were dipped into gradient solutions of the test compound and allowed to dry. Test plants were maintained under fluorescent light (24 hour photoperiod) at about 25° C. and about 20-40% relative humidity. Aphid mortality on the treated plants, relative to mortality on check plants, was determined after 5 days.

[2] = test system: dichromothrips corbetti; test: Orchid thrips (dichromothrips corbetti) floral-immersion; settings: 96 h, after 4 days, read-out: mortality in comparison with untreated controls
Procedure: Dichromothrips corbetti adults used for bioassay were obtained from a colony maintained continuously under laboratory conditions. For testing purposes, the test compound was diluted to a concentration of 300 ppm (wt compound: vol diluent) in a 1:1 mixture of acetone:water (vol:vol), plus 0.01% vol/vol Kinetic® surfactant.
Thrips potency of each compound was evaluated by using a floral-immersion technique. Plastic petri dishes were used as test arenas. All petals of individual, intact orchid flowers were dipped into treatment solution and allowed to dry. Treated flowers were placed into individual petri dishes along with 10-15 adult thrips. The petri dishes were then covered with lids. All test arenas were held under continuous light and a temperature of about 28° C. for duration of the assay. After 4 days, the numbers of live thrips were counted on each flower, and along inner walls of each petri dish. The level of thrips mortality was extrapolated from pre-treatment thrips numbers.

[3] = test system: Megoura viciae; test: Vetch aphid (Megoura viciae) contact or systemic, broad bean leaf disks; settings: foliar, 120 h, after 5 days, read-out: mortality in comparison with untreated controls
Procedure: For evaluating control of vetch aphid (Megoura viciae) through contact or systemic means the test unit consisted of 24-well-microtiter plates containing broad bean leaf disks.
The compounds were formulated using a solution containing 75% v/v water and 25% v/v DMSO. Different concentrations of formulated compounds were sprayed onto the leaf disks at 2.5 μl, using a custom built micro atomizer, at two replications. After application, the leaf disks were air-dried and 5-8 adult aphids placed on the leaf disks inside the microtiter plate wells. The aphids were then allowed to suck on the treated leaf disks and incubated at about 23±1° C. and about 50±5% relative humidity for 5 days. Aphid mortality and fecundity was then visually assessed.

[4] = test system: aphis craccivora; test: Cowpea aphid (aphis craccivora), sprayed potted cowpea plants; settings: population reduction assessed after 24, 72, and 120 hours, read-out: mortality in comparison with untreated controls
Procedure: The active compound is dissolved at the desired concentration in a mixture of 1:1 (vol:vol) distilled water:acetone. The test solution is prepared at the day of use.
Potted cowpea plants colonized with approximately 100-150 aphids of various stages were sprayed after the pest population has been recorded. Population reduction was assessed after 24, 72, and 120 hours.

[5] = test system: Aphis gossypii; test: Cotton aphid (Aphis gossypii) I, cotton cotyledon dip; settings: 120 h, after 5 days, read-out: mortality in comparison with untreated controls
Text: The active compounds were formulated in 50:50 (vol:vol) acetone:water and 100 ppm Kinetica™ surfactant.
Cotton plants at the cotyledon stage (one plant per pot) were infested by placing a heavily infested leaf from the main colony on top of each cotyledon. The aphids were allowed to transfer to the host plant overnight, and the leaf used to transfer the aphids was removed. The cotyledons were dipped in the test solution and allowed to dry. After 5 days, mortality counts were made.

[6] = test system: Myzus persicae; test: Green peach aphid (Myzus persicae) I, systemic, artificial diet under membrane; settings: 72 h, after 3 days, read-out: mortality in comparison with untreated controls
Text: For evaluating control of green peach aphid (Myzus persicae) through systemic means the test unit consisted of 96-well-microtiter plates containing liquid artificial diet under an artificial membrane.
The compounds were formulated using a solution containing 75% v/v water and 25% v/v DMSO. Different concentrations of formulated compounds were pipetted into the aphid diet, using a custom built pipetter, at two replications.
After application, 5-8 adult aphids were placed on the artificial membrane inside the microtiter plate wells. The aphids were then allowed to suck on the treated aphid diet and incubated at about 23±1° C. and about 50±5% relative humidity for 3 days. Aphid mortality and fecundity was then visually assessed.

[7] = test system: Nephotettix virescens; test: Rice green leafhopper (Nephotettix virescens), sprayed rice seedlings; settings: after 72 hours, read-out: mortality in comparison with untreated controls
Procedure: Rice seedlings were cleaned and washed 24 hours before spraying. The active compounds were formulated in 50:50 acetone:water (vol:vol), and 0.1% vol/vol surfactant (EL 620) was added. Potted rice seedlings were sprayed with 5 ml test solution, air dried, placed in cages and inoculated with 10 adults. Treated rice plants were kept at about 28-29° C. and relative humidity of about 50-60%. Percent mortality was recorded after 72 hours.

[8] = test system: Anthonomus grandis; test: Boll weevil (Anthonomus grandis) egg and larval mortality, microtiter plate insect diet; settings: 120 h, egg and larval mortality after 5 days, read-out: mortality in comparison with untreated controls
Procedure: For evaluating control of boll weevil (Anthonomus grandis) the test unit consisted of 24-well-microtiter plates containing an insect diet and 20-30 A. grandis eggs.
The compounds were formulated using a solution containing 75% v/v water and 25% v/v DMSO. Different concentrations of formulated compounds were sprayed onto the insect diet at 20 μl, using a custom built micro atomizer, at two replications. After application, microtiter plates were incubated at about 23±1° C. and about 50±5% relative humidity for 5 days. Egg and larval mortality was then visually assessed.

N#CN=S1(=O)CCCN1Cc1ccc(Cl)nc1 (centres unmarked) [compound 1]
> 75%: mortality at 300 ppm [1] | mortality at 300 ppm [2] | mortality at 2500 ppm [3] | mortality at 300 ppm [4] | mortality at 300 ppm [5] | mortality at 300 ppm [6] | mortality at 300 ppm [7] | mortality at 2500 ppm [8]

N#CN=S1(=O)CCCN1c1cnc(Cl)c(Cl)c1 (centres unmarked) [compound 12]
> 75%: mortality at 300 ppm [1] | mortality at 2500 ppm [3] | mortality at 300 ppm [4] | mortality at 300 ppm [5] | mortality at 300 ppm [7]

CS(=O)(=NC#N)NCc1ccc(Cl)nc1 (centres unmarked) [compound 90]
> 75%: mortality at 300 ppm [1] | mortality at 2500 ppm [3] | mortality at 300 ppm [4] | mortality at 300 ppm [5]
